Two molecules from US6911432B2, “Drugs, foods or drinks with the use of algae-derived physiologically active substances” (priority 1997, dated 2005) can be followed below.

In one series the test system is RAW264.7. In words: antiproliferation assay, MTT method. In kind it is cell-based, mouse. The conditions noted are these: for dilution rate of the dilution added to the group whose absorbance at 590 nm was less than one-half of that of the control group: dilution rate 1 corresponds to 5 mM in medium; for IC50: read-out: IC50 (concentration required for 50% proliferation inhibitory rate). Here is the method: (§1) Each fraction was sterilized by filtration and its 10 μl portion was placed in a well of a 96 well microtiter plate. […] The cell morphology was observed under an optical microscope. […] The absorbance at 590 nm was measured to determine a cell proliferation rate. (2) A 50 mM solution of agarobiose, agarotetraose or agarohexaose obtained in Example 3-(1) was sterilized by filtration and diluted 2-, 4-, 8-, 16-, 32-, 64- and 128-folds with sterilized water. […] [table] The number in Table 3 represents the dilution rate of the dilution added to the group whose absorbance at 590 nm was less than one-half of that of the control group to which water was added. […] Then, for agarobiose, agarotetraose and agarohexaose, the concentrations required for 50% proliferation inhibitory rate (IC50) are calculated based on the change in the absorbance at 590 nm, and are shown in Table 4.

The subject of a further series is HCT116. The experiment in a line: antiproliferation assay, MTT method. It is filed as cell-based, human. To be noted: for dilution rate of the dilution added to the group whose absorbance at 590 nm was less than one-half of that of the control group: dilution rate 1 corresponds to 5 mM in medium; for IC50: read-out: IC50 (concentration required for 50% proliferation inhibitory rate). Here is the method:
as §1

The subject of a further series is HT-29. In words: antiproliferation assay, MTT method. In kind it is cell-based, human. To be noted: for dilution rate of the dilution added to the group whose absorbance at 590 nm was less than one-half of that of the control group: dilution rate 1 corresponds to 5 mM in medium; for IC50: read-out: IC50 (concentration required for 50% proliferation inhibitory rate). Here is the method:
as §1

For the next series, the system named is HeLa S3. The experiment in a line: antiproliferation assay, MTT method. The conditions noted are these: for dilution rate of the dilution added to the group whose absorbance at 590 nm was less than one-half of that of the control group: dilution rate 1 corresponds to 5 mM in medium; for IC50: read-out: IC50 (concentration required for 50% proliferation inhibitory rate). In kind it is cell-based, human. On the procedure: as §1

In another series the test system is T24. The experiment in a line: antiproliferation assay, MTT method. It is filed as cell-based, human. To be noted: for dilution rate of the dilution added to the group whose absorbance at 590 nm was less than one-half of that of the control group: dilution rate 1 corresponds to 5 mM in medium; for IC50: read-out: IC50 (concentration required for 50% proliferation inhibitory rate). Here is the method:
as §1

The subject of a further series is RAW 264.7 cells. The experiment in a line: NO production induced by LPS, NO2- concentration in medium. It is filed as cell-based, mouse. The conditions noted are these: RAW 264.7; 10 μl of 5000 to 50 μM solution per 500 μl well; 12 hours. On the procedure:
(1) RAW 264.7 cells (ATCC TIB 71) were suspended in phenol red-free Dulbecco's modified Eagle's medium containing 10% fetal bovine serum (manufactured by Gibco) and 2 mM L-glutamine (manufactured by Life Technologies Oriental, 25030-149) at a concentration of 3×10^5 cells/ml, and 500 μl portions thereof were seeded to respective wells of a 48-well microtiter plate and incubated at 37° C. for 12 hours in the presence of 5% CO2. To each well were added 10 μl of 25 μg/ml lipopolysaccharide (LPS, manufactured by Sigma, L-2012) and 10 μl of aqueous 5000, 1500, 500, 150 or 50 μM agarobiose or neoagarobiose (manufactured by Sigma, G4410) solution, and the plate was incubated for additional 12 hours. Then, concentration of NO2^− produced by oxidation of NO in the medium was measured. As control groups, a group to which LPS was not added and a group to which agarobiose or neoagarobiose was not added were provided.
After incubating as described above, 100 μl of 4% Greece reagent (manufactured by Sigma, G4410) was added to 100 μl of the medium, and the mixture was allowed to stand for 15 minutes at room temperature. Then, the absorbance at 490 nm was measured. NO2^− concentration in the medium was calculated with reference to a calibration curve prepared by using NaNO2 at given concentrations dissolved in the same medium as that described above. All the measurements were carried out in triplicate.
(2) A suspension of 5 g of commercially available agar (Ina agar type S-7, manufactured by Ina Shokuhin Kogyo) in 45 ml of 0.1 N HCl was treated at 95° C. for 13 minutes. After cooling to room temperature, the suspension was neutralized with NaOH and filtered through 0.22 μm MILLEX-GP filter (manufactured by Milipore, SLGPR25LS). […] Namely, 10 μl of 25 μg/ml LPS and 10 μl of a 20-fold dilution of the sample mentioned above were added to wells of a 48 well microtiter plate containing RAW264.7 cells which had been incubated in the wells. The measurement was carried out with the culture medium. As control groups, a group to which LPS was not added, a group to which a sample was not added and a group to which 2.5 mM citric acid was added were provided. All the measurement were carried out in duplicate.

In series [1] the test system is Mouse melanoma cell B16BL6. In words: inhibition of melanin production, absorbance at 400 nm. In kind it is cell-based. Here is the method: Mouse melanoma cell B16BL6 suspended in RPMI-1640 containing 10% FBS was placed in a 6 well plate at a concentration of 5×10^4 cells/2 ml medium/well and incubated at 37° C. On the 2nd day, 100 μl of agarobiose solution (2 mg/ml to 0.2 mg/ml) was added thereto, and on the 7th day, the medium was changed and, at the same time, 100 μl of agarobiose solution (2 mg/ml to 0.2 mg/ml) was added thereto. On the 8th day, the cells were collected, DNA, RNA and protein were decomposed, and then the absorbance at 400 nm was measured to examine an activity of inhibiting melanin production.
Namely, after removing the medium by suction, 0.3 ml of 0.25% trypsin dissolved in 20 mM EDTA solution was added to each well and the plate was incubated at 37° C. for 10 minutes. Then, 2 ml of the fresh medium was added to the well and the cells were suspended. The suspension was collected into a test tube. The medium was then removed by centrifugation and the cells were suspended in 2 ml of PBS and centrifuged again. After removing the supernatant, 30 μl of 50 mM sodium acetate buffer (pH 5.0) containing 5 mM manganese chloride and 1 μl of 70,000 U/ml DNase I (manufactured by Takara Shuzo) were added to the cells and thoroughly mixed. The mixture was incubated at 37° C. for 2 hours to decompose DNA. Then, 1 μl of 10 mg/ml ribonuclease A (manufactured by Sigma) was added to the mixture and the resultant mixture was incubated at 50° C. for 1 hour to decompose RNA. Finally, 100 mM Tris-hydrochloric acid buffer (pH 7.8) containing 100 μg/ml proteinase K (manufactured by Sigma), 0.1% Triton x and 10 mM EDTA was added thereto to make the total volume up to 200 μl for 2×10^6 cells, and the mixture was incubated at 37° C. for 16 hours and then the absorbance at 400 nm was measured.

A short description of series [2]: reaction with L-cysteine or L-lysine in phosphate buffered saline at 37° C., thin layer chromatography. In kind it is physicochemical. On the procedure: (2) Agarobiose and agarohexaose obtained in Example 14-(1) were dissolved in water to prepare 100 mM aqueous solutions thereof. To each 25 μl of these solutions was added 50 μl of 100 mM aqueous L-cysteine solution, followed by addition of 925 μl of phosphate buffered saline. Then, the mixture was treated at 37° C. for 1 hour or 16 hours. The same reaction was repeated except that an aqueous solution containing the same concentration of L-lysine was used instead of the aqueous L-cysteine solution.
1 μl of a sample from each reaction was spotted on a silica gel sheet 60 F254, developed with 1-butanol:ethanol:water=5:5:1 and detected by orcinol-sulfate method.

Consider `OC[C@H]1O[C@@H](O[C@H]2[C@H]3OC[C@@H]2OC(O)[C@H]3O)[C@H](O)[C@@H](O)[C@H]1O` (mixture of isomers) [Agarobiose, agarobiose], for which the “dilution rate of the dilution added to the group whose absorbance at 590 nm was less than one-half of that of the control group” value in the series with RAW264.7 came out at 16; in the series on HCT116 it was 16; in the series with HT-29, 8; in the series with HeLa S3, 8; in the series with T24, 8. Besides, the IC50 in the series with RAW264.7 was found to be 179 µM; in the series on HCT116, 244 µM; with HT-29, 622 µM; in the series on HeLa S3 it was 353 µM; in the series with T24 it was 352 µM. Besides, the “inhibition of NO production induced by LPS (in words)” value with RAW 264.7 cells was “dose-dependently inhibited”. In addition, the “Absorbance at 400 nm mean” value in series [1] (agarobiose 10 μg/ml) worked out at 0.521; in series [1] (agarobiose 50 μg/ml), 0.392; in series [1] (agarobiose 100 μg/ml), 0.383. For the same molecule, the “activity of inhibiting melanin production (in words)” value in series [1] (agarobiose at 50 and 100 μg/ml) was “recognized”. Moreover, the “spot of the saccharide on thin layer chromatography after reaction” value in series [2] (L-cysteine, 1 hour) is reported as “disappeared”; in series [2] (L-cysteine, 16 hours), “disappeared”; in series [2] (L-lysine, 16 hours) it was “disappeared”.

With `OC[C@H]1O[C@@H](O[C@H]2[C@H]3OC[C@@H]2O[C@@H](O[C@H]2[C@@H](O)[C@@H](CO)O[C@@H](O[C@H]4[C@H]5OC[C@@H]4OC(O)[C@H]5O)[C@@H]2O)[C@H]3O)[C@H](O)[C@@H](O)[C@H]1O` (stereo partly shown) [Agarotetraose, agarotetraose], the “dilution rate of the dilution added to the group whose absorbance at 590 nm was less than one-half of that of the control group” value stood at 32 in the series on RAW264.7; 32 in the series on HCT116; 16 in the series on HT-29; 8 in the series on HeLa S3; 8 in the series with T24. The IC50 in the series on RAW264.7 is 133 µM; in the series with HCT116 it was 158 µM; in the series with HT-29, 208 µM; in the series on HeLa S3 it was 400 µM; in the series on T24 it was 399 µM. In addition, the “spot of the saccharide on thin layer chromatography after reaction” value was “disappeared” in series [2] (L-cysteine, 1 hour); “disappeared” in series [2] (L-cysteine, 16 hours); “disappeared” in series [2] (L-lysine, 16 hours).
